Starred links: 1 amine or outer side, 2 acyl side, 3 side chain; linkers in the order of their positions; H or OH if unused. Positions of bridges follow the written chain, without caps; N, C: chain ends. Non-standard residues stand in square brackets, D forms with d. Residues, ends and D or L forms follow the SMILES beside them. *: point of attachment. Bip(4'-(3-HOOC-benzamido)) = N[C@@H](Cc1ccc(-c2ccc(NC(=O)c3cccc(C(=O)O)c3)cc2)cc1)C(=O)O; Bip(4'-NHBz) = N[C@@H](Cc1ccc(-c2ccc(NC(=O)c3ccccc3)cc2)cc1)C(=O)O; Bip(4'-NH) = O=C([C@H](Cc1ccc(-c2ccc(N[*:3])cc2)cc1)N[*:1])[*:2]; Indazole3carbonyl(1-CH2COOH) = O=C(O)Cn1nc(C(=O)*)c2ccccc21; Bip(4'-COOH) = N[C@@H](Cc1ccc(-c2ccc(C(=O)O)cc2)cc1)C(=O)O; X63 = N=C(NCCC[C@@H](N[*:1])C(=O)[*:2])NCCc1cccc(O)c1; X51 = N=C(NCCC[C@@H](N[*:1])C(=O)[*:2])NCCc1ccccc1; Ala(morpholin-4-yl) = N[C@@H](CN1CCOCC1)C(=O)O; Benzoyl(3-OCH2COOH) = O=C(O)COc1cccc(C(=O)*)c1; Phe(3-CONH2) = NC(=O)c1cccc(C[C@H](N)C(=O)O)c1; Bip = N[C@@H](Cc1ccc(-c2ccccc2)cc1)C(=O)O; Tiq1c(1S) = O=C(O)[C@H]1NCCc2ccccc21; 2Pal = N[C@@H](Cc1ccccn1)C(=O)O; Tic = O=C(O)[C@@H]1Cc2ccccc2CN1; Cha = N[C@@H](CC1CCCCC1)C(=O)O; Tle = CC(C)(C)[C@H](N)C(=O)O; Aze = O=C(O)[C@@H]1CCN1; Sar = CNCC(=O)O
The compounds below were run against TNFα (Homo sapiens, UniProt P01375) (assay: TNF-Induced HEK-Blue Assay). Settings: not given.
Chain of TNFα (P01375 77-233 limits assumed): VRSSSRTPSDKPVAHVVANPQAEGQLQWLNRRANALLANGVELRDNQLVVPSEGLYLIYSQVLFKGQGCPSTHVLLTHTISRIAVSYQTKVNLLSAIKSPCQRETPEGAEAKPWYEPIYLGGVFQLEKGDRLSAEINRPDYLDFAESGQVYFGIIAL
Type: cell-based

Q: Which IC50 does the source give for `CC[C@H](C)[C@@H]1NC(=O)[C@@H](CCCNC(=N)N)NC(=O)[C@H](CC(=O)O)NC(=O)[C@H](Cc2cnc[nH]2)NC(=O)CN(C)C(=O)[C@H](Cc2ccc(-c3ccc(NC(=O)c4nn(CC(=O)O)c5ccccc45)cc3)cc2)NC(=O)[C@H](Cc2ccc(-c3ccccc3)cc2)NC(=O)[C@H](CC2CCCCC2)NC(=O)CSC[C@@H](C(=O)NCC(N)=O)NC(=O)[C@H](CC(C)C)NC(=O)[C@H](Cc2cnc[nH]2)NC(=O)[C@H](C(C)C)NC(=O)[C@@H]2CCCN2C1=O` [Example 364] ({CH2CO}-[Cha][Bip][Bip(4'-NH)](Indazole3carbonyl(1-CH2COOH))[Sar]HD[dR]IPVHLCG-NH2; thioether N-13) here?
A: < 50 nM

Q: `CC(C)C[C@@H]1NC(=O)[C@H](CCCNC(=N)N)NC(=O)[C@H](C(C)C)NC(=O)[C@@H]2CCCN2C(=O)[C@H](C(C)C)NC(=O)[C@@H](CCCNC(=N)NCCc2ccccc2)NC(=O)[C@H](CC(=O)O)NC(=O)[C@@H]2CCCN2C(=O)CN(C)C(=O)[C@H](Cc2ccc(-c3ccc(NC(=O)c4nn(CC(=O)O)c5ccccc45)cc3)cc2)NC(=O)[C@H](Cc2ccc(-c3ccccc3)cc2)NC(=O)[C@H](CN2CCOCC2)NC(=O)CSC[C@@H](C(=O)NCC(N)=O)NC1=O` [Example 365] ({CH2CO}-[Ala(morpholin-4-yl)][Bip][Bip(4'-NH)](Indazole3carbonyl(1-CH2COOH))[Sar]PD[X51]VPVRLCG-NH2; thioether N-13) was tested. Which IC50 did it give?
A: < 50 nM

Q: For `CC(C)C[C@@H]1NC(=O)[C@H](CCCNC(=N)N)NC(=O)[C@H](C(C)C)NC(=O)[C@@H]2CCCN2C(=O)[C@H](C(C)C)NC(=O)[C@@H](CCCNC(=N)NCCc2cccc(O)c2)NC(=O)[C@H](CC(=O)O)NC(=O)[C@@H]2CCCN2C(=O)CN(C)C(=O)[C@H](Cc2ccc(-c3ccc(NC(=O)c4nn(CC(=O)O)c5ccccc45)cc3)cc2)NC(=O)[C@H](Cc2ccc(-c3ccccc3)cc2)NC(=O)[C@H](CN2CCOCC2)NC(=O)CSC[C@@H](C(=O)NCC(N)=O)NC1=O` [Example 366] ({CH2CO}-[Ala(morpholin-4-yl)][Bip][Bip(4'-NH)](Indazole3carbonyl(1-CH2COOH))[Sar]PD[X63]VPVRLCG-NH2; thioether N-13), which IC50 is on record?
A: < 50 nM

Q: `CC[C@H](C)[C@@H]1NC(=O)[C@@H]2CCCN2C(=O)[C@H]([C@@H](C)CC)NC(=O)[C@@H](CCCNC(=N)N)NC(=O)[C@H](CC(=O)O)NC(=O)[C@H](Cc2ccccn2)NC(=O)CN(C)C(=O)[C@H](Cc2ccc(-c3ccc(NC(=O)c4ccccc4)cc3)cc2)NC(=O)[C@H](Cc2ccc(-c3ccccc3)cc2)NC(=O)[C@H](C(C)(C)C)NC(=O)CSC[C@@H](C(=O)NCC(N)=O)NC(=O)[C@H](CC(C)C)NC(=O)[C@H](Cc2cccc(C(N)=O)c2)NC1=O` [Example 367] ({CH2CO}-[Tle][Bip][Bip(4'-NHBz)][Sar][2Pal]D[dR]IPI[Phe(3-CONH2)]LCG-NH2; thioether N-13) was tested. Which IC50 did it give?
A: < 50 nM

Q: `CC[C@H](C)[C@@H]1NC(=O)[C@@H](CCCNC(=N)N)NC(=O)[C@H](CC(=O)O)NC(=O)[C@H](Cc2cnc[nH]2)NC(=O)CN(C)C(=O)[C@H](Cc2ccc(-c3ccc(NC(=O)c4ccccc4)cc3)cc2)NC(=O)[C@H](Cc2ccc(-c3ccc(C(=O)O)cc3)cc2)NC(=O)[C@H](CC2CCCCC2)NC(=O)CSC[C@@H](C(=O)NCC(N)=O)NC(=O)[C@H](CC(C)C)NC(=O)[C@H](Cc2cnc[nH]2)NC(=O)[C@H](C(C)C)NC(=O)[C@@H]2Cc3ccccc3CN2C1=O` [Example 370] ({CH2CO}-[Cha][Bip(4'-COOH)][Bip(4'-NHBz)][Sar]HD[dR]I[Tic]VHLCG-NH2; thioether N-13) was tested. Which IC50 did it give?
A: < 50 nM

Q: How did the IC50 turn out when `CC[C@H](C)[C@@H]1NC(=O)[C@@H](CCCNC(=N)N)NC(=O)[C@H](CC(=O)O)NC(=O)[C@H](Cc2cnc[nH]2)NC(=O)CN(C)C(=O)[C@H](Cc2ccc(-c3ccc(NC(=O)c4ccccc4)cc3)cc2)NC(=O)[C@H](Cc2ccc(-c3ccc(C(=O)O)cc3)cc2)NC(=O)[C@H](CC2CCCCC2)NC(=O)CSC[C@@H](C(=O)NCC(N)=O)NC(=O)[C@H](CC(C)C)NC(=O)[C@H](Cc2cnc[nH]2)NC(=O)[C@H](C(C)C)NC(=O)[C@@H]2c3ccccc3CCN2C1=O` [Example 373] ({CH2CO}-[Cha][Bip(4'-COOH)][Bip(4'-NHBz)][Sar]HD[dR]I[Tiq1c(1S)]VHLCG-NH2; thioether N-13) was run?
A: < 50 nM

Q: For `CC[C@H](C)[C@@H]1NC(=O)[C@@H](CCCNC(=N)N)NC(=O)[C@H](CC(=O)O)NC(=O)[C@H](Cc2cnc[nH]2)NC(=O)CN(C)C(=O)[C@H](Cc2ccc(-c3ccc(NC(=O)c4cccc(OCC(=O)O)c4)cc3)cc2)NC(=O)[C@H](Cc2ccc(-c3ccc(C(=O)O)cc3)cc2)NC(=O)[C@H](CC2CCCCC2)NC(=O)CSC[C@@H](C(=O)NCC(N)=O)NC(=O)[C@H](CC(C)C)NC(=O)[C@H](Cc2cnc[nH]2)NC(=O)[C@H](C(C)C)NC(=O)[C@@H]2c3ccccc3CCN2C1=O` [Example 375] ({CH2CO}-[Cha][Bip(4'-COOH)][Bip(4'-NH)](Benzoyl(3-OCH2COOH))[Sar]HD[dR]I[Tiq1c(1S)]VHLCG-NH2; thioether N-13), which IC50 is on record?
A: < 50 nM

Q: `CC[C@H](C)[C@@H]1NC(=O)[C@@H]2CCN2C(=O)[C@H]([C@@H](C)CC)NC(=O)[C@@H](CCCNC(=N)N)NC(=O)[C@H](CC(=O)O)NC(=O)[C@H](Cc2ccc(O)cc2)NC(=O)CN(C)C(=O)[C@H](Cc2ccc(-c3ccc(NC(=O)c4ccccc4)cc3)cc2)NC(=O)[C@H](Cc2ccc(-c3ccccc3)cc2)NC(=O)[C@H](C(C)(C)C)NC(=O)CSC[C@@H](C(=O)NCC(N)=O)NC(=O)[C@H](CC(C)C)NC(=O)[C@H](Cc2ccc(O)cc2)NC1=O` [Example 376] ({CH2CO}-[Tle][Bip][Bip(4'-NHBz)][Sar]YD[dR]I[Aze]IYLCG-NH2; thioether N-13) was tested. Which IC50 did it give?
A: 50 to 200 nM

Same assay, conditions: HEK-Blue-CD40L cells, NF-kB-driven secreted alkaline phosphatase reporter; TNFα 0.5 ng/ml; 18 h; read-out: TNF induced HEK-Blue assay IC50 value

Q: Which IC50 does the source give for `CC[C@H](C)[C@@H]1NC(=O)[C@@H]2CCCN2C(=O)[C@H]([C@@H](C)CC)NC(=O)[C@@H](CCCNC(=N)N)NC(=O)[C@H](CC(=O)O)NC(=O)[C@H](Cc2ccccn2)NC(=O)CN(C)C(=O)[C@H](Cc2ccc(-c3ccc(NC(=O)c4cccc(C(=O)O)c4)cc3)cc2)NC(=O)[C@H](Cc2ccc(-c3ccccc3)cc2)NC(=O)[C@H](C(C)(C)C)NC(=O)CSC[C@@H](C(=O)NCC(N)=O)NC(=O)[C@H](CC(C)C)NC(=O)[C@H](Cc2cccc(C(N)=O)c2)NC1=O` [Example 368] ({CH2CO}-[Tle][Bip][Bip(4'-(3-HOOC-benzamido))][Sar][2Pal]D[dR]IPI[Phe(3-CONH2)]LCG-NH2; thioether N-13) here?
A: < 50 nM

Q: With `CC(C)C[C@@H]1NC(=O)[C@H](Cc2ccc(O)cc2)NC(=O)[C@H](C(C)C)NC(=O)[C@@H]2Cc3ccccc3CN2C(=O)[C@H](C(C)C)NC(=O)[C@@H](CCCNC(=N)N)NC(=O)[C@H](CC(=O)O)NC(=O)[C@@H]2CCCN2C(=O)CN(C)C(=O)[C@H](Cc2ccc(-c3ccc(NC(=O)c4cccc(OCC(=O)O)c4)cc3)cc2)NC(=O)[C@H](Cc2ccc(-c3ccc(C(=O)O)cc3)cc2)NC(=O)[C@H](CC2CCCCC2)NC(=O)CSC[C@@H](C(=O)NCC(N)=O)NC1=O` [Example 369] ({CH2CO}-[Cha][Bip(4'-COOH)][Bip(4'-NH)](Benzoyl(3-OCH2COOH))[Sar]PD[dR]V[Tic]VYLCG-NH2; thioether N-13) as the compound, how does the IC50 read?
A: 50 to 200 nM

Q: Which IC50 does the source give for `CC[C@H](C)[C@@H]1NC(=O)[C@@H](CCCNC(=N)N)NC(=O)[C@H](CC(=O)O)NC(=O)[C@H](Cc2cnc[nH]2)NC(=O)CN(C)C(=O)[C@H](Cc2ccc(-c3ccc(NC(=O)c4cccc(C(=O)O)c4)cc3)cc2)NC(=O)[C@H](Cc2ccc(-c3ccc(C(=O)O)cc3)cc2)NC(=O)[C@H](CC2CCCCC2)NC(=O)CSC[C@@H](C(=O)NCC(N)=O)NC(=O)[C@H](CC(C)C)NC(=O)[C@H](Cc2cnc[nH]2)NC(=O)[C@H](C(C)C)NC(=O)[C@@H]2Cc3ccccc3CN2C1=O` [Example 371] ({CH2CO}-[Cha][Bip(4'-COOH)][Bip(4'-(3-HOOC-benzamido))][Sar]HD[dR]I[Tic]VHLCG-NH2; thioether N-13) here?
A: < 50 nM

Q: With `CC[C@H](C)[C@@H]1NC(=O)[C@@H](CCCNC(=N)N)NC(=O)[C@H](CC(=O)O)NC(=O)[C@H](Cc2cnc[nH]2)NC(=O)CN(C)C(=O)[C@H](Cc2ccc(-c3ccc(NC(=O)c4cccc(OCC(=O)O)c4)cc3)cc2)NC(=O)[C@H](Cc2ccc(-c3ccc(C(=O)O)cc3)cc2)NC(=O)[C@H](CC2CCCCC2)NC(=O)CSC[C@@H](C(=O)NCC(N)=O)NC(=O)[C@H](CC(C)C)NC(=O)[C@H](Cc2cnc[nH]2)NC(=O)[C@H](C(C)C)NC(=O)[C@@H]2Cc3ccccc3CN2C1=O` [Example 372] ({CH2CO}-[Cha][Bip(4'-COOH)][Bip(4'-NH)](Benzoyl(3-OCH2COOH))[Sar]HD[dR]I[Tic]VHLCG-NH2; thioether N-13) as the compound, how does the IC50 read?
A: < 50 nM

Q: How did the IC50 turn out when `CC[C@H](C)[C@@H]1NC(=O)[C@@H](CCCNC(=N)N)NC(=O)[C@H](CC(=O)O)NC(=O)[C@H](Cc2cnc[nH]2)NC(=O)CN(C)C(=O)[C@H](Cc2ccc(-c3ccc(NC(=O)c4cccc(C(=O)O)c4)cc3)cc2)NC(=O)[C@H](Cc2ccc(-c3ccc(C(=O)O)cc3)cc2)NC(=O)[C@H](CC2CCCCC2)NC(=O)CSC[C@@H](C(=O)NCC(N)=O)NC(=O)[C@H](CC(C)C)NC(=O)[C@H](Cc2cnc[nH]2)NC(=O)[C@H](C(C)C)NC(=O)[C@@H]2c3ccccc3CCN2C1=O` [Example 374] ({CH2CO}-[Cha][Bip(4'-COOH)][Bip(4'-(3-HOOC-benzamido))][Sar]HD[dR]I[Tiq1c(1S)]VHLCG-NH2; thioether N-13) was run?
A: < 50 nM

Q: How did the IC50 turn out when `CC[C@H](C)[C@@H]1NC(=O)[C@@H]2CCN2C(=O)[C@H]([C@@H](C)CC)NC(=O)[C@@H](CCCNC(=N)N)NC(=O)[C@H](CC(=O)O)NC(=O)[C@H](Cc2ccc(O)cc2)NC(=O)CN(C)C(=O)[C@H](Cc2ccc(-c3ccc(NC(=O)c4cccc(C(=O)O)c4)cc3)cc2)NC(=O)[C@H](Cc2ccc(-c3ccccc3)cc2)NC(=O)[C@H](C(C)(C)C)NC(=O)CSC[C@@H](C(=O)NCC(N)=O)NC(=O)[C@H](CC(C)C)NC(=O)[C@H](Cc2ccc(O)cc2)NC1=O` [Example 377] ({CH2CO}-[Tle][Bip][Bip(4'-(3-HOOC-benzamido))][Sar]YD[dR]I[Aze]IYLCG-NH2; thioether N-13) was run?
A: 50 to 200 nM

Source: patent publication US20250145665A1, “MACROCYCLIC PEPTIDES USEFUL AS MODULATORS OF TNF ALPHA” (Bristol-Myers Squibb Company, priority 2023, published 2025)
